Calls of active or inactive are those of the source. The rule behind the calls is not given here.
Columns and labels:
[1] = Antiproliferative activity against human p53 -/- HCT116 cells measured after 72 hrs by MTS assay; type: functional; settings: HCT-116, 72 h
[2] = Antiproliferative activity against human p53 +/+ HCT116 cells measured after 72 hrs by MTS assay; type: functional; settings: HCT-116, 72 h
[3] = Antiproliferative activity against human SW620 cells expressing P53 mutant measured after 72 hrs by MTS assay; type: functional; settings: SW-620, 72 h
HepG2 = assay: Antiproliferative activity against human HepG2 cells expressing wild-type P53 measured after 72 hrs by MTS assay; type: functional; settings: HepG2, 72 h
[4] = Metabolic stability at human plasma assessed as compound degradation at 37 degC after 72 hrs by HPLC analysis; type: ADME, cell-free; settings: read-out: Drug degradation
[5] = target: Cellular tumor antigen p53 (Homo sapiens) (UniProt P04637); assay: Induction of p53 phosphorylation at serine-15 in human p53 +/+ HCT 116 cells bat 5 or 10 uM after 24 hrs by western blot analysis; type: cell-based
Sequence of Cellular tumor antigen p53 (Homo sapiens) (P04637 whole entry, looked up): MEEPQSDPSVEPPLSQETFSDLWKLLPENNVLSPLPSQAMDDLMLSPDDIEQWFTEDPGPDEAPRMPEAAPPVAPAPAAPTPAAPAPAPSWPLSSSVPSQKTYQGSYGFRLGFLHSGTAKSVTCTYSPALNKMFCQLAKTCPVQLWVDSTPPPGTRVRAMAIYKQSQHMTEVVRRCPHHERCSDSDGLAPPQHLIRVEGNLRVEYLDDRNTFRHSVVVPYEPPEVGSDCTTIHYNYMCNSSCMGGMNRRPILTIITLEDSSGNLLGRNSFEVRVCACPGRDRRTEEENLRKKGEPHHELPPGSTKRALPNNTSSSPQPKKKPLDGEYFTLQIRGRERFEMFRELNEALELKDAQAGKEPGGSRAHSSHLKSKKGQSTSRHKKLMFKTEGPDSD

HCT-116 [6] = assay: Induction of apoptosis in human p53 +/+ HCT116 cells assessed as increase in PARP cleavage at 5 or 10 uM after 24 hrs by western blot analysis; type: functional, cell-based
[7] = Chemical stability in phosphate buffer at pH 7.4 and 37 degC measured for 3 days by HPLC analysis; type: physicochemical; settings: pH 7.4, 72 h
[8] = Half life in Sprague-Dawley rat liver microsomes at 37 degC in presence of NADPH generating system by HPLC analysis; type: ADME
HCT-116 [9] = assay: Induction of apoptosis in human p53 +/+ HCT116 cells assessed as activation of caspase3 at 5 or 10 uM after 24 hrs by Caspase-Glo 3/7 assay; type: functional, cell-based
HCT-116 [10] = assay: Induction of apoptosis in human p53 +/+ HCT116 cells assessed as activation of caspase7 at 5 or 10 uM after 24 hrs by Caspase-Glo 3/7 assay; type: functional, cell-based

| SMILES | GI50 [1] [µM] | GI50 [2] [µM] | other results |
| --- | --- | --- | --- |
| O=C1Nc2cc(Cl)ccc2[C@]12ON=C(c1ccccc1)N2c1ccccc1 | 35.5 | 28.4 | – |
| O=C1Nc2ccc(Br)cc2[C@]12ON=C(c1ccccc1)N2c1cccc(Cl)c1 | 7.5 | 4.7 | GI50 [3]: 4.2 µM; GI50 (HepG2): 3.5 µM |
| O=C1Nc2cc(Cl)ccc2[C@]12ON=C(c1ccc(Cl)cc1)N2c1ccccc1 | 30.6 | 26.5 | – |
| O=C1Nc2ccc(Br)cc2[C@]12ON=C(c1ccccc1)N2c1ccccc1 | – | 13.5 | – |
| O=C1Nc2ccccc2[C@]12ON=C(c1ccccc1)N2c1ccc(F)cc1 | – | 99.6 | – |
| O=C1Nc2ccc(Br)cc2[C@]12ON=C(c1cccc(Cl)c1F)N2c1cccc(Cl)c1 | 4.4 | 3.2 | GI50 [3]: 3.5 µM; GI50 (HepG2): 2.5 µM |
| O=C1Nc2cc(Cl)ccc2[C@]12ON=C(c1ccc(Cl)cc1)N2c1ccc(Cl)cc1 | – | 13.2 | – |
| O=C1Nc2ccccc2[C@]12ON=C(c1ccccc1)N2c1cccc(Cl)c1 | – | 70.1 | – |
| O=C1Nc2ccc(Br)cc2[C@]12ON=C(c1cccc(Cl)c1)N2c1ccc(F)c(Cl)c1 | 7.2 | 6.6 | GI50 [3]: 6.7 µM; GI50 (HepG2): 4 µM |
| O=C1Nc2ccccc2[C@]12ON=C(c1cccc(Cl)c1)N2c1ccc(Cl)cc1 | – | 38.4 | – |
| O=C1Nc2cc(Cl)ccc2[C@]12ON=C(c1ccc(Cl)cc1)N2c1cccc(Cl)c1 | – | 20.2 | – |
| COc1ccc(C2=N[C@@H](c3ccc(Cl)cc3)[C@@H](c3ccc(Cl)cc3)N2C(=O)N2CCNC(=O)C2)c(OC(C)C)c1 [NUTLIN-3] | 47.8 | 4 | – |
| O=C1Nc2ccc(Cl)cc2[C@]12ON=C(c1cccc(Cl)c1)N2c1cccc(Cl)c1 | 6.8 | 4.6 | GI50 [3]: 3.9 µM; GI50 (HepG2): 3.3 µM |
| O=C1Nc2ccc(Br)cc2[C@]12ON=C(c1cccc(Cl)c1)N2c1cccc(Cl)c1F | 2 | 1.7 | GI50 [3]: 2 µM; GI50 (HepG2): 1.2 µM |
| O=C1Nc2ccc(Br)cc2[C@]12ON=C(c1ccccc1)N2c1ccc(Cl)cc1 | 25.8 | 21.9 | – |
| O=C1Nc2ccc(Br)cc2[C@]12ON=C(c1cccc(Br)c1)N2c1cccc(Br)c1 | 6 | 3.2 | GI50 [3]: 3.7 µM; GI50 (HepG2): 2.2 µM |

| SMILES | GI50 [1] [µM] | GI50 [2] [µM] | other results |
| --- | --- | --- | --- |
| O=C1Nc2ccc(Br)cc2[C@]12ON=C(c1ccc(Cl)cc1)N2c1cccc(Cl)c1 | 12.3 | 7.7 | GI50 [3]: 8 µM; GI50 (HepG2): 4.1 µM |
| O=C1Nc2ccccc2[C@]12ON=C(c1ccccc1)N2c1ccc(Cl)cc1 | – | 54.5 | – |
| O=C1Nc2ccc(Br)cc2[C@]12ON=C(c1cccc(Cl)c1)N2c1cccc(Cl)c1 | 2.9 | 2 | metabolised at 72 h [4]: 38%; GI50 [3]: 2.1 µM; Activity [5]: inactive; GI50 (HepG2): 2.1 µM; Activity (HCT-116 [6]): Active; Stability [7]: Stable; half-life [8]: 33.5 min; Activity (HCT-116 [9]): Active; Activity (HCT-116 [10]): Active |
| Cc1ccc(C2=NO[C@@]3(C(=O)Nc4cc(Cl)ccc43)N2c2ccccc2)cc1 | – | 50.6 | – |
| O=C1Nc2ccc(Cl)cc2[C@]12ON=C(c1ccc(Cl)cc1)N2c1cccc(Cl)c1 | 29 | 25.6 | – |
| O=C1Nc2cc(Cl)ccc2[C@]12ON=C(c1cccc(Cl)c1)N2c1cccc(Cl)c1 | 7.8 | 6.6 | GI50 [3]: 6.7 µM; GI50 (HepG2): 4.4 µM |
| O=C1Nc2ccccc2[C@]12ON=C(c1ccc(Cl)cc1)N2c1ccc(Cl)cc1 | – | 31.2 | – |
| O=C1Nc2cc(Cl)ccc2[C@]12ON=C(c1ccccc1)N2c1ccc(Cl)cc1 | – | 31.8 | – |
| O=C1Nc2ccc(Cl)cc2[C@]12ON=C(c1ccccc1)N2c1ccc(Cl)cc1 | 27 | 27.1 | – |
| O=C1Nc2ccc(Cl)cc2[C@]12ON=C(c1ccccc1)N2c1cccc(Cl)c1 | 41.6 | 26.4 | – |
| O=C1Nc2ccccc2[C@]12ON=C(c1ccc(Cl)cc1)N2c1cccc(Cl)c1 | – | 33.7 | – |
| O=C1Nc2cc(Cl)ccc2[C@]12ON=C(c1cccc(Cl)c1)N2c1ccc(Cl)cc1 | – | 28.7 | – |
| O=C1Nc2ccc(Cl)cc2[C@]12ON=C(c1cccc(Cl)c1)N2c1ccc(Cl)cc1 | 21.8 | 21.3 | – |
| O=C1Nc2ccccc2[C@]12ON=C(c1cccc(Cl)c1)N2c1cccc(Cl)c1 | – | 32.6 | – |
| O=C1Nc2ccc(Cl)cc2[C@]12ON=C(c1ccccc1)N2c1ccccc1 | – | 39.1 | – |
| O=C1Nc2ccc(Cl)cc2[C@]12ON=C(c1ccc(Cl)cc1)N2c1ccc(Cl)cc1 | 18 | 17.6 | – |

From ChEMBL document CHEMBL3797025, “Spirooxadiazoline oxindoles with promising in vitro antitumor activities” (Medchemcomm, 2016)
